{
  "source": "patent US20020159994A1",
  "about": "“Biotin derivatives” (priority 2000, published 2002)",
  "molecular_target": "T1, Mitra Avidin-Agarose (Gallus gallus, UniProt P02701)",
  "T1 construct": "Mitra (Mitra Medical Technology AB)",
  "T1 sequence (P02701 25-152)": "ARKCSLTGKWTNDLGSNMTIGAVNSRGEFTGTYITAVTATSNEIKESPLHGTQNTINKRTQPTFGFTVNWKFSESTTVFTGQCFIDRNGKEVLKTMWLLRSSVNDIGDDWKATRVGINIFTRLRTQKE",
  "test": "Adsorption of biotin-trimer to avidin-agarose column (conditioning, ELISA of recirculated fluid)",
  "format": "binding",
  "parameters": "biotin-trimer bound if one biotin-trimer is bound per available binding site: unit not given here",
  "experimental": "Two mL of Mitra Avidin-Agarose was packed into a column housing and was washed with >10 mL of PBS at a flow rate of 1 mL/min (1.6 cm/min). Five mL of a 1 mg/mL solution of biotin-trimer in PBS was recirculated through the avidin-column at 1 mL/min for 20 minutes. At end of the recirculation, a sample (0.5 mL) was drawn from the recirculated solution and analysed by an ELISA technique developed by Mitra Medical Technology AB. The biotin-avidin-agarose-column was washed with phosphate buffer at 1 mL/min for 20 minutes. By determining the concentration of biotin-trimer in the recirculated fluid, the amount of adsorbed biotin-trimer was estimated to about 1.9 mg i.e. […] of gel at the end of recirculation.\nBiotin-trimer was adsorbed to 2 mL of Mitra Avidin-Agarose. […] If one biotin-trimer is bound per available binding site this would correspond to […] biotin-trimer/mL. As about 0.95 mg biotin-trimer was bound per mL avidin-agarose it can be assumed that the adsorbent was saturated with biotin-trimer.",
  "data": [
    {"smiles": "O=C(CCCCC1OCC2NC(=O)NC21)NCCOCCOCCNC(=O)c1cc(C(=O)NCCOCCOCCNC(=O)CCCCC2OCC3NC(=O)NC32)cc(C(=O)NCCOCCOCCNC(=O)CCCCC2OCC3NC(=O)NC32)c1", "note": "(stereo not shown) [biotin-trimer]", "values": [
      {"measurement": "biotin-trimer bound per mL avidin-agarose", "setting": "2 mL Mitra Avidin-Agarose", "value": "about 0.95 mg per mL avidin-agarose"},
      {"measurement": "amount of adsorbed biotin-trimer at end of recirculation", "setting": "2 mL Mitra Avidin-Agarose, 5 mL of 1 mg/mL biotin-trimer in PBS recirculated at 1 mL/min for 20 minutes", "value": "about 1.9 mg"},
      {"measurement": "amount of adsorbed biotin-trimer per mL of gel", "setting": "2 mL Mitra Avidin-Agarose, end of 20 min recirculation", "value": "~0.95", "unit": "mg/mL"},
      {"measurement": "biotin-trimer bound if one biotin-trimer is bound per available binding site", "setting": "theoretical, from static biotin binding capacity", "value": 514}
    ]}
  ]
}
